Results from US4734409A, “Cephalosporin derivative, process for producing the same and pharmaceutical composition containing the same” (Kureha Kagaku Kogyo Kabushiki Kaisha, priority 1984, dated 1988).

Assays:
[1] = tested on: Proteus vulgaris IAM 1025; assay: Antibacterial activity, agar plate dilution method: P. vulgaris IAM 1025; assay type: cell-based; settings: Mueller-Hinton agar, 10^6 cells/ml, 37° C., 18 to 24 hours
Protocol: (§1) Antibacterial activity of the present compound was examined by agar plate dilution method while following the standard method of Japan Society of Chemotherapy and using the following strain: 4. Proteus vulgaris IAM 1025 Namely, after inoculating each bacteria on Mueller-Hinton culture medium, the inoculum was incubated for 18 to 48 hours at 37° C. and after adjusting the number of cells of each bacteria so as to contain 10^6 in one ml, the thus prepared specimen was used as the test bacterial liquid. Each of the present substances (the substance in Example 1 and the substance in Example 2) was dispersed in aqueous physiological saline solution at a predetermined concentration and the thus prepared dispersion was added to 9 times by volume of the culture medium for examining sensitivity (Mueller-Hinton culture medium) to prepare agar plates. On each agar plate, each of the test bacterial liquid was smeared at a width of about 2 cm, and the thus smeared agar plate was incubated for 18 to 24 hours at 37° C.

[2] = tested on: Pseudomonas aeruginosa IAM 1514; assay: Antibacterial activity, agar plate dilution method: P. aeruginosa IAM 1514; assay type: cell-based; settings: Mueller-Hinton agar, 10^6 cells/ml, 37° C., 18 to 24 hours
Protocol: as §1, with “5. Pseudomonas aeruginosa” for “4. Proteus vulgaris”, “1514” for “1025”

[3] = tested on: Escherichia coli W 3636; assay: Antibacterial activity, agar plate dilution method: E. coli W 3636; assay type: cell-based; settings: Mueller-Hinton agar, 10^6 cells/ml, 37° C., 18 to 24 hours
Protocol: Antibacterial activity of the present compound was examined by agar plate dilution method while following the standard method of Japan Society of Chemotherapy and using the following strain:
3. Escherichia coli W 3636
Namely, after inoculating each bacteria on Mueller-Hinton culture medium, the inoculum was incubated for 18 to 48 hours at 37° C. and after adjusting the number of cells of each bacteria so as to contain 10^6 in one ml, the thus prepared specimen was used as the test bacterial liquid.
Each of the present substances (the substance in Example 1 and the substance in Example 2) was dispersed in aqueous physiological saline solution at a predetermined concentration and the thus prepared dispersion was added to 9 times by volume of the culture medium for examining sensitivity (Mueller-Hinton culture medium) to prepare agar plates.
On each agar plate, each of the test bacterial liquid was smeared at a width of about 2 cm, and the thus smeared agar plate was incubated for 18 to 24 hours at 37° C.

[4] = tested on: Staphylococcus aureus IAM 1011; assay: Antibacterial activity, agar plate dilution method: S. aureus IAM 1011; assay type: cell-based; settings: Mueller-Hinton agar, 10^6 cells/ml, 37° C., 18 to 24 hours
Protocol: as §1, with “2. Staphylococcus aureus” for “4. Proteus vulgaris”, “1011” for “1025”

[5] = tested on: Escherichia coli IFO 12734; assay: Antibacterial activity, agar plate dilution method: E. coli IFO 12734; assay type: cell-based; settings: Mueller-Hinton agar, 10^6 cells/ml, 37° C., 18 to 24 hours
Protocol: as §1, with “1. Escherichia coli IFO 12734” for “4. Proteus vulgaris IAM 1025”

[6] = tested on: Staphylcoccus aureus IAM 1011; assay: Activation by rat liver homogenate (S-9 mix), penicillin cup proliferation-inhibiting circle; assay type: cell-based, Staphylococcus aureus; settings: 20 min at 37° C., inhibiting circle diameter as % of that of the starting compound; for Degree of activation, Before adding S-9 mix: phosphoric acid buffer control; for Degree of activation, After adding S-9 mix: rat liver S-9 mix
Protocol: As an enzyme for activating metabolism of the present compound, rat liver homogenate (S-9, manufactured by Oriental Yeast Co., Ltd.) was used in preparing the following mixture (hereinafter referred to as S-9 mix).
Composition of S-9 mix (amount in one ml of S-9 mix)
A test solution of present compound was prepared by mixing 0.1 ml of a dispersion of the present compound and 0.9 ml of the thus prepared S-9 mix and shaking the thus prepared mixture for 20 min at 37° C. As a control, a mixture was prepared by mixing 0.1 ml of the dispersion of the present compound and 0.9 ml of the 0.2M phosphoric acid buffer and shaking the mixture for 20 min at 37° C.
As the test bacteria, Staphylcoccus aureus IAM 1011 was inoculated in Mueller-Hinton culture medium and after incubating the inoculum for 18 hours at 37° C., the number of the bacteria was adjusted to 10^8 /ml and the bacterial preparation was mixed with 50 times by volume of Mueller-Hinton culture medium, and an agar plate was prepared from the mixture.
After placing a penicillin cup of 8 mm in diameter on the thus prepared agar plate, 0.1 ml of the test solution of present compound prepared above was put into the cup, and after leaving the agar plate for 2 hours at 4° C., the agar plate was subjected to culture for 18 hours at 37° C. and the diameter of a proliferation-inhibiting circle appearing on the agar plate was measured.
The same procedures were carried out except for using 7β-[2-(2-amino-4-thiazolyl)-(Z)-2-methoxyiminoacetamido]-3-[(2-methyl-1,3,4-thiadiazol-5-yl)thiomethyl]-3-cephem-4-carboxylic acid used as a starting compound for producing the present compound in Example 1 instead of the present compound.
The percentage of the diameter of a proliferation-inhibiting circle due to the present compound to that due to the starting compound mentioned above was obtained, and from the following standards, the degree of activation was obtained.

Structure (SMILES): CO/N=C(\C(=O)N[C@@H]1C(=O)N2C(C(=O)O)=C(CSc3nnc(C)s3)CS[C@H]12)c1csc(NC(=O)C(Cl)Cl)n1 [Example 1, 7β-[2-(2-dichloroacetamido-4-thiazolyl)-(Z)-2-methoxyiminoacetamido]-3-[(2-methyl-1,3,4-thiadiazol-5-yl)thiomethyl]-3-cephem-4-carboxylic acid]
- minimal inhibitory concentration (MIC), Pro. vulgaris IAM 1025 [1]: 0.05
- minimal inhibitory concentration (MIC), P. aeruginosa IAM 1514 [2]: 50
- minimal inhibitory concentration (MIC), E. coli W 3636 [3]: 0.4
- minimal inhibitory concentration (MIC), S. aureus IAM 1011 [4]: 0.78
- minimal inhibitory concentration (MIC), E. coli IFO 12734 [5]: 0.1
- Degree of activation, Before adding S-9 mix [6]: ++++ (100 to 150%)
- Degree of activation, After adding S-9 mix [6]: ++++ (100 to 150%)

Structure (SMILES): CO/N=C(\C(=O)N[C@@H]1C(=O)N2C(C(=O)OCOC(=O)C(C)(C)C)=C(CSc3nnc(C)s3)CS[C@H]12)c1csc(NC(=O)C(Cl)Cl)n1 [Example 2]
- minimal inhibitory concentration (MIC), Pro. vulgaris IAM 1025 [1]: 50
- minimal inhibitory concentration (MIC), P. aeruginosa IAM 1514 [2]: ≥ 100
- minimal inhibitory concentration (MIC), E. coli W 3636 [3]: ≥ 100
- minimal inhibitory concentration (MIC), S. aureus IAM 1011 [4]: ≥ 100
- minimal inhibitory concentration (MIC), E. coli IFO 12734 [5]: 50
- Degree of activation, Before adding S-9 mix [6]: ± (0 to 1%)
- Degree of activation, After adding S-9 mix [6]: ++++ (100 to 150%)
